In ChEMBL document CHEMBL1201862, “PubChem BioAssay data set” (2004):
One block for each molecule: values may come before it. The source made the active and inactive calls.

Experiments:
Melanocortin receptor 4 = Melanocortin receptor 4 (Homo sapiens, UniProt P32245); type: functional, cell-based;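 note: Cell-based assay with luminescence read-out, confirmatory dose-response testing for agonist activity of biased ligands at MC4R; human U2OS cells with tagged receptor and beta-arrestin; potency of agonists that increase receptor coupling to beta-arrestin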
Estrogen receptor beta = Estrogen receptor beta (Homo sapiens, UniProt Q92731);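 note: recombinant ER-beta bound to coactivator SRC1 peptide in presence of estradiol agonist; inhibitors block coactivator peptide binding and lower the FRET signal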
[1] = molecular target: T1, Trace amine-associated receptor 1 (Homo sapiens, UniProt Q96RJ0); assay: Fluorescence-based cell-based high throughput dose response assay to identify agonists of the human trace amine associated receptor 1 (TAAR1).; type: functional
T1 sequence (Q96RJ0 whole entry): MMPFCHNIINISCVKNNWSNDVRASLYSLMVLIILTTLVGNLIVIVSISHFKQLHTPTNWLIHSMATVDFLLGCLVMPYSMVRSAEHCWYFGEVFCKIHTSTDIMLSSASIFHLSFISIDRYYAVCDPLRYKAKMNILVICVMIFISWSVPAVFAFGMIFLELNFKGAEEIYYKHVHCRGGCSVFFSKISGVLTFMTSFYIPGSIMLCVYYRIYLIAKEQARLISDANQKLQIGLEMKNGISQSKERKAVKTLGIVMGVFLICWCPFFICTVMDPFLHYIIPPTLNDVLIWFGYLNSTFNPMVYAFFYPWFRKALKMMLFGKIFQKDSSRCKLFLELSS

[2] = molecular target: T1, Trace amine-associated receptor 1; assay: Counterscreen for agonists of the human trace amine associated receptor 1 (hTAAR1): Fluorescence-based cell-based high throughput dose response assay to identify hTAAR1 agonist that also desensitize TAAR1 receptor response.; type: functional
cells [3] = type: functional, cell-based
cells [4] = type: functional, cell-based; remark: listed apart in the source
[5] = molecular target: T2, Rac GTPase-activating protein 1 (Homo sapiens, UniProt Q9H0H5); assay: blockers of MgcRacGAP-driven Rac1 GTP hydrolysis – biochemical, ADP Hunter fluorescence, primary and confirmatory, confirmation (AID 624330); type: functional
T2 sequence (Q9H0H5 whole entry): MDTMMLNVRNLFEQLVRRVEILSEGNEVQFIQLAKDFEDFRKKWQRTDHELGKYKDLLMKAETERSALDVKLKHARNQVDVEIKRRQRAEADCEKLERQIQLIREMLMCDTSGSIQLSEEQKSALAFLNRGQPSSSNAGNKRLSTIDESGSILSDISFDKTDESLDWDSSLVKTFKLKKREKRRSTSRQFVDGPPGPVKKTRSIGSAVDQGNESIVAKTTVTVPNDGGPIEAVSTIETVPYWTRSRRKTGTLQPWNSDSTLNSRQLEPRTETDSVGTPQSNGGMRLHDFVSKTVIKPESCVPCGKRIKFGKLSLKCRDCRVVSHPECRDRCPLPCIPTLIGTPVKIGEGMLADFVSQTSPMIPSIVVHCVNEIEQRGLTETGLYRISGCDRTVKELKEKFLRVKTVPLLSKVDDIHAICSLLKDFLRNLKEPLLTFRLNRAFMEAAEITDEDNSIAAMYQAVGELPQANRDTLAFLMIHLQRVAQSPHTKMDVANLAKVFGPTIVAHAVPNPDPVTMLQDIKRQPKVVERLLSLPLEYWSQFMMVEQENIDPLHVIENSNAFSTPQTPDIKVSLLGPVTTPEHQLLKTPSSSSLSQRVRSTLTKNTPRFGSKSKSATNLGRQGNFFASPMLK

Caspase-3 = molecular target: T3, Caspase-3 (Homo sapiens, UniProt P42574); assay: SAR Analysis of small molecule inhibitors of Sentrin-specific proteases (SENPs) using a Caspase-3 Selectivity assay. [Related pubchem assays (depositor defined):AID2540, AID2599, AID434973, AID489001]; type: functional
T3 sequence (P42574 whole entry): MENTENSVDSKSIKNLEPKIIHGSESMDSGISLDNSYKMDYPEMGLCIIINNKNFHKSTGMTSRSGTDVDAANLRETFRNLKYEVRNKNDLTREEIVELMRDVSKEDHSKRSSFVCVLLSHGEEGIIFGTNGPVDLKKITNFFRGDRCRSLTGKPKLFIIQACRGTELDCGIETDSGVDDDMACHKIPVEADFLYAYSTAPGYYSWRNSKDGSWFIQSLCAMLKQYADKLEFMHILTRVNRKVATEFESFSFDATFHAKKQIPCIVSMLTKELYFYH

[6] = molecular target: T4, Sentrin-specific protease 6 (Homo sapiens, UniProt Q9GZR1); assay: SAR Analysis of small molecule inhibitors of Sentrin-specific protease 6 (SENP6) using a Luminescent assay. [Related pubchem assays (depositor defined):AID2582, AID2599]; type: functional
T4 sequence (Q9GZR1 whole entry): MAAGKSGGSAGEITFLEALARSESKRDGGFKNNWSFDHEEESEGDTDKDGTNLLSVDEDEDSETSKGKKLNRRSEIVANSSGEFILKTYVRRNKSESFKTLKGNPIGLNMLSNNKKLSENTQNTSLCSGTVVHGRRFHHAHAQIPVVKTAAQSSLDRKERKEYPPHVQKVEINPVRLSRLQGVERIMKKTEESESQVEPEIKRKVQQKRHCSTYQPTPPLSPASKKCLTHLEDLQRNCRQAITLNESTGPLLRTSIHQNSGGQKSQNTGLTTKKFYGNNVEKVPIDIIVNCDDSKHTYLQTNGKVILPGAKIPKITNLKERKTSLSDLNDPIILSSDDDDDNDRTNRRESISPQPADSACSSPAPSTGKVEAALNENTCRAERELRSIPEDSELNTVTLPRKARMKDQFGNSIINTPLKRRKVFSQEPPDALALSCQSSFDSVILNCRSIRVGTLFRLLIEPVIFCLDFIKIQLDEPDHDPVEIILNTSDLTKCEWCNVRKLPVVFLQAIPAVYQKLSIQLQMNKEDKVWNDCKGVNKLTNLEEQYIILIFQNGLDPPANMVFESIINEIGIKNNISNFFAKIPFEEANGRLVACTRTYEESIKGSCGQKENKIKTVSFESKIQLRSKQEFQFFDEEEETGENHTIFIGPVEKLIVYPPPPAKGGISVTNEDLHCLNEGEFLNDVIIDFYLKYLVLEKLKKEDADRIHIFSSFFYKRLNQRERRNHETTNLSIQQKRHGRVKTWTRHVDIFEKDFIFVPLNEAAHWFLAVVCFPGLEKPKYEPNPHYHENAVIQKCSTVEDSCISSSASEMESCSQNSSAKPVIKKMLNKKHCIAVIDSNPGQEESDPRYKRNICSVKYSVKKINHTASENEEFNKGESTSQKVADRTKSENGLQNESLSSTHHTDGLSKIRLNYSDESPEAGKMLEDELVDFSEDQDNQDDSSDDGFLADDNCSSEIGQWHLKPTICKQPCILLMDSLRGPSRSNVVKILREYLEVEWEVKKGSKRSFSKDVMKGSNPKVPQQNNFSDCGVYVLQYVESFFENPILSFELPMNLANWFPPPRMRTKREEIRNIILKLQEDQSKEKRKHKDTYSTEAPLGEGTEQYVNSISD

[7] = molecular target: T5, Sentrin-specific protease 8 (Homo sapiens, UniProt Q96LD8); assay: inhibition of human SENP8 cleavage activity – biochemical, luminescence, SAR follow-up (AID 504501); type: functional
T5 sequence (Q96LD8 whole entry): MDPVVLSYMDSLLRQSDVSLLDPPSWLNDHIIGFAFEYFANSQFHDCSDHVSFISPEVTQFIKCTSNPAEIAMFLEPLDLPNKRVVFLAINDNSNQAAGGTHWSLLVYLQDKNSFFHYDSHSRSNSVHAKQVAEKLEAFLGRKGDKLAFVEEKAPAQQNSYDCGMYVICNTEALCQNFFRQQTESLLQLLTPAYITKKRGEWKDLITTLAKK

[8] = molecular target: T6, Sentrin-specific protease 7 (Homo sapiens, UniProt Q9BQF6); assay: inhibition of human SENP7 cleavage activity – biochemical, luminescence, SAR follow-up (AID 504497); type: functional
T6 sequence (Q9BQF6 whole entry): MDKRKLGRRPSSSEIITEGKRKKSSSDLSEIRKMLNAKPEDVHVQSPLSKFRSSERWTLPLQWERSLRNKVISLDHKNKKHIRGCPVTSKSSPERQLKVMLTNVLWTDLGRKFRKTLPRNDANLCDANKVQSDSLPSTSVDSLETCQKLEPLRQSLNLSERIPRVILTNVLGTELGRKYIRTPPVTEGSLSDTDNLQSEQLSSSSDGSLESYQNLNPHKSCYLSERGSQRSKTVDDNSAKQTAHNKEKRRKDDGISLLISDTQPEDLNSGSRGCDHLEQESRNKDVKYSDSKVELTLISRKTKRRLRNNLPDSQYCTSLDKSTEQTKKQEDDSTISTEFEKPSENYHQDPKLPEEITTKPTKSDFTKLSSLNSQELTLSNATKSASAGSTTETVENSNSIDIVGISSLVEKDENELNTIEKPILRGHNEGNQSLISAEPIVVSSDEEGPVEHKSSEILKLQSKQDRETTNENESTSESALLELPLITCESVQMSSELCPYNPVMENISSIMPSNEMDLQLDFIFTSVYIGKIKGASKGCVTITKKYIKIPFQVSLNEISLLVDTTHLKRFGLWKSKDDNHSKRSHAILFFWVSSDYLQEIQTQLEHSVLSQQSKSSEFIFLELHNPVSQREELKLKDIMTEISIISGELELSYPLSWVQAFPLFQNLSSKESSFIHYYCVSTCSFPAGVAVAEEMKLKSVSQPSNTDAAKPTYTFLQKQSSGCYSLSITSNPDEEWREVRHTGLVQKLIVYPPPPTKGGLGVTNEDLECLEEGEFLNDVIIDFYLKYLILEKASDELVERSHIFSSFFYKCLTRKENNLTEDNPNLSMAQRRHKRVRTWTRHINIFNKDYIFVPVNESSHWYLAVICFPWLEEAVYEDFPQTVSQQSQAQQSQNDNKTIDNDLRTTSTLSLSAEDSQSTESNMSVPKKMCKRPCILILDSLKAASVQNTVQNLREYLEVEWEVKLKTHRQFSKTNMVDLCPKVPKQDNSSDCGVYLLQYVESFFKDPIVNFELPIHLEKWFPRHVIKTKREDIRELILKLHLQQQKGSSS

[9] = molecular target: T7, Microphthalmia-associated transcription factor (Homo sapiens, UniProt O75030); assay: reducers of TRPM1 reporter luminescence, concentration series – cell-based, SK-MEL-5, cherry-picked, set 3, MITF inhibitor project, dose response (AID 493073); type: functional;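 note: SK-MEL-5 melanoma cells with luciferase driven by the MITF target TRPM1 promoter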
T7 sequence (O75030 whole entry): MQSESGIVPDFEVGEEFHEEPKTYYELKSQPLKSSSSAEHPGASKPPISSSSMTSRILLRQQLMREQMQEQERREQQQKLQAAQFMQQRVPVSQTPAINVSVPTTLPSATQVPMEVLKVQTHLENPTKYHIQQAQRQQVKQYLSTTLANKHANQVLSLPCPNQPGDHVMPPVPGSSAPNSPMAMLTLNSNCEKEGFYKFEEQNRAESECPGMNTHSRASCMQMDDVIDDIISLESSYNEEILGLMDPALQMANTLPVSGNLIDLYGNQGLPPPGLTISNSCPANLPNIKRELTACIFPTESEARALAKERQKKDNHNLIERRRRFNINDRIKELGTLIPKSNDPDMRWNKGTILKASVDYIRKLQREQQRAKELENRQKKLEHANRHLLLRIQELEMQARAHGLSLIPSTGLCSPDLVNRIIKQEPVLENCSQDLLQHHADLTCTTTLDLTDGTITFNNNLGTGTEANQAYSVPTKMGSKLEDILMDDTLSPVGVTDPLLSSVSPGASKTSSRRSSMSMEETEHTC

Chain of Melanocortin receptor 4 (P32245 whole entry): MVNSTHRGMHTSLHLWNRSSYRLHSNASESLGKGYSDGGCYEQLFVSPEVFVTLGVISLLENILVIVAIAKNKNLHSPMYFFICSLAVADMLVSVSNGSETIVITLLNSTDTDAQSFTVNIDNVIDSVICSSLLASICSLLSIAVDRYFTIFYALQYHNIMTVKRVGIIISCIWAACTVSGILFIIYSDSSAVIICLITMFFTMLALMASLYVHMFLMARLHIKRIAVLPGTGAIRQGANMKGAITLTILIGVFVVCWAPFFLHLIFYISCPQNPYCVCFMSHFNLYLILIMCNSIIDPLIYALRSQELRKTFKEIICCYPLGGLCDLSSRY
Chain of Estrogen receptor beta (Q92731 whole entry): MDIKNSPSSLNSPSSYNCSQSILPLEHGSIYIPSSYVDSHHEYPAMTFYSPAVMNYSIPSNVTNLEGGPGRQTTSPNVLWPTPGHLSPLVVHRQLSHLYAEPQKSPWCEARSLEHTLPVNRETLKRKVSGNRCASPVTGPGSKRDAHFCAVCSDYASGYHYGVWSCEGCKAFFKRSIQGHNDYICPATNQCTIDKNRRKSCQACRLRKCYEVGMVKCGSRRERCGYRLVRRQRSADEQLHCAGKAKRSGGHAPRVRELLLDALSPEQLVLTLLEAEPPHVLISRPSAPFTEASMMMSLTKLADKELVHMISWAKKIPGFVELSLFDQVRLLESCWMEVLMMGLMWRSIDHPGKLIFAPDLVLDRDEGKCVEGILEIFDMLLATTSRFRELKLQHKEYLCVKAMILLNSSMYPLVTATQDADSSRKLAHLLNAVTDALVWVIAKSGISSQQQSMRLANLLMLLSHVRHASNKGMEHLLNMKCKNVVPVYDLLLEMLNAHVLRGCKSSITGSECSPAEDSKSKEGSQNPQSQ

- EC50 (Melanocortin receptor 4): > 89.2 µM (inactive)
SMILES: Cc1ccccc1-c1nc(-c2ccc(NC(=O)c3ccc(Br)o3)cc2)no1

- IC50 (Estrogen receptor beta): > 50 µM (not active)
SMILES: CCN(CC)S(=O)(=O)c1ccc(C(=O)NCc2ccc(C)cc2)cc1

SMILES: NNc1nc(Nc2ccccc2)nc(N2CCCCC2)n1
- EC50 [1]: 3.48 µM (active)
- IC50 [2]: 8.76 µM (active)
- IC50 (cells [3]): > 29.9 µM (inactive)
- EC50 (cells [4]): > 29.9 µM (inactive)

SMILES: O=C(COC(=O)Cc1ccccc1F)NCCc1ccccc1
- EC50 [1]: > 9.96 µM (active)
- IC50 [2]: 2.35 µM (active)
- IC50 (cells [3]): > 29.9 µM (inactive)
- EC50 (cells [4]): > 29.9 µM (inactive)

SMILES: O=C(CN1CCc2ccccc2C1)Nc1ccccc1C(F)(F)F
- IC50 [5]: 205 µM (active)
- EC50 [1]: 3.55 µM (active)
- IC50 [2]: 11.1 µM (inactive)
- IC50 (cells [3]): > 29.9 µM (inactive)
- EC50 (cells [4]): > 29.9 µM (inactive)

- IC50 (Caspase-3): > 99 µM (inactive)
- IC50 [6]: > 99 µM (inactive)
- IC50 [8]: > 99 µM (inactive)
SMILES: CCOC(=O)c1c(-c2ccc(Br)cc2)csc1NC(=O)C1CC1
- IC50 [7]: > 99 µM (inactive)

- EC50 (Melanocortin receptor 4): > 89.2 µM (inactive)
SMILES: COc1ccc(CNC(=O)Nc2nc(C(N)Cc3ccc(C(F)(F)F)cc3)cs2)cc1 (stereo not drawn)

- IC50 (Caspase-3): > 99 µM (inactive)
- IC50 [6]: > 99 µM (inactive)
- IC50 [8]: > 99 µM (inactive)
SMILES: CS(=O)(=O)c1ccc2nc(NC(=O)c3cccc(NS(=O)(=O)c4ccccc4)c3)sc2c1
- IC50 [7]: > 99 µM (inactive)

- IC50 (Caspase-3): > 99 µM (inactive)
- IC50 [6]: > 99 µM (inactive)
- IC50 [8]: > 99 µM (inactive)
SMILES: COc1ccc(N/N=C/c2cn(Cc3ccccc3)c3ccccc23)cc1
- IC50 [7]: > 99 µM (inactive)

- IC50 (Caspase-3): > 99 µM (inactive)
- IC50 [6]: > 99 µM (inactive)
- IC50 [8]: > 99 µM (inactive)
SMILES: Cc1ccc(S(=O)(=O)Nc2ccc3sc(NC(=O)c4ccccc4)nc3c2)cc1
- IC50 [7]: > 99 µM (inactive)

- EC50 (Melanocortin receptor 4): 12.4 µM (inactive)
SMILES: COc1ccc(-c2cc(NC=O)c3ncc(-c4cccc(C(F)(F)F)c4)n3c2)cc1OC

- AC50 [9]: 9.36 µM (active)
SMILES: O=[N+]([O-])c1ccc(/C=N/N=C/c2ccc([N+](=O)[O-])o2)o1

- EC50 (Melanocortin receptor 4): > 89.2 µM (inactive)
SMILES: C/C(=N\NC(=O)COc1cccc2ccccc12)c1cccs1

SMILES: CCOC(=O)N[C@H](C(=O)N1CCC[C@H]1C(=O)NCCc1ccccc1Cl)c1ccccc1
- EC50 [1]: 2.06 µM (active)
- IC50 [2]: 6.89 µM (active)
- IC50 (cells [3]): > 29.9 µM (inactive)
- EC50 (cells [4]): > 29.9 µM (inactive)

SMILES: Nc1nc(-c2ccccc2)cn1/N=C/c1ccccc1
- EC50 [1]: 1.49 µM (active)
- IC50 [2]: 8.47 µM (active)
- IC50 (cells [3]): > 29.9 µM (inactive)
- EC50 (cells [4]): > 29.9 µM (inactive)
